Reference: ChEMBL document CHEMBL3887005, “N-cyclopropyl-N-piperidinyl-amides, pharmaceutical compositions containing them, and uses thereof” (2016)

Target: T1, Glucose-dependent insulinotropic receptor (Homo sapiens, UniProt Q8TDV5)
T1 sequence (Q8TDV5 whole entry): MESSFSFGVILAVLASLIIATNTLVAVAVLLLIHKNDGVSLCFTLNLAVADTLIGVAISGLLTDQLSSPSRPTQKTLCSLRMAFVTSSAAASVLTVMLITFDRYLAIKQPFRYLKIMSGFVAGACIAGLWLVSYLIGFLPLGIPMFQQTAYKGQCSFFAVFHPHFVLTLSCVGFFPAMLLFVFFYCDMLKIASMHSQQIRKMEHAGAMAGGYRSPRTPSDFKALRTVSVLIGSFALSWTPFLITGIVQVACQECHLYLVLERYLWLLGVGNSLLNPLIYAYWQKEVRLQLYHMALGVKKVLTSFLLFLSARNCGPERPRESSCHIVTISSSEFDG
Assay: AlphaScreen cAMP Assay: MIN6 cells [Miyazaki J et al. Endocrinology. 1990 July; 127(1):126-32] are stably transfected with an expression vector for human GPR119 cDNA (Acc. No. NP_848566). Min-6/hGPR119 cells are cultured in DMEM, 10% FBS, 50 uM β-mercaptoethanol, 0.3 mg/mL Geniticin, 2 mM GlutaMAX at 37° C. 5% CO2. For the assay, the cells are seeded in Optiplates (white, 384-well, 160W-barcoded, TC, sterile with lid, Cat. No. #6007688 (Perkin Elmer); 10000 cells/well; 50 ul). The plates covered with lids are then incubated for 24 hours at 37° C./5% CO2. After the medium is aspirated from the wells completely, 10 ul of the test compound are added, the compounds are diluted using stimulating buffer (140 mM NaCl, 3.6 mM KCl, 0.5 mM NaH2PO4, 0.5 mM MgSO4, 1.5 mM CaCl2, 10 mM Hepes, 5 mM NaHCO3; pH 7.4. 0.5 mM IBMX and 0.1% BSA, the final DMSO concentration is 1%). After 45 minutes incubation at room temperature (approx. 20° C.), the cAMP concentrations are determined using the AlphaScreen cAMP Assay Kit (Cat. No. #6760625R from PerkinElmer). […]
Type: functional, cell-based

EC50 [µM]	SMILES
0.057	CC(C)(C)OC(=O)N1CCC(N(C(=O)c2ccc(-c3ccc(CS(C)(=O)=O)cc3)cc2)C2CC2)CC1
0.059	O=C(OC1CCCCC1)N1CCC(N(C(=O)c2ccc(-c3cnco3)cc2)C2CC2)CC1
